Measured values: publication PMC9181795, “Ibuprofen Favors Binding of Amyloid-β Peptide to Its Depot, Serum Albumin” (International Journal of Molecular Sciences, 2022)

Experiments:
[1] = tested on: HSA–Aβ interaction
Procedure: To ensure the monomeric state of Aβ, the non-covalently bound Aβ molecules were thoroughly washed from the chip surface until stabilization of the SPR signal using several water solutions: 2% sodium dodecyl sulfate (SDS), 100 mM HCl, 20 mM ethylenediaminetetraacetic acid (EDTA) pH 8.0 with 1% SDS.
The freeze-dried Aβ samples were dissolved in neat TFA at a concentration of 0.5–1 mg/mL, followed by sonication for 30 s and TFA evaporation using an Eppendorf Concentrator plus. The dried Aβ samples were dissolved in DMSO at a concentration of 2 mg/mL and stored at −20 °C.
The rest of the activated amine groups on the chip surface were blocked by 1 M ethanolamine solution. […] The double-referenced SPR sensograms were analyzed using the heterogeneous ligand model (Equation (1)), assuming presence of two populations of a ligand (L1 and L2) that bind an analyte molecule (A):(1) ka1L1+ A⇌L1Akd1Kd1 ka2L2+ A⇌L2Akd2Kd2 where ka and kd refer to kinetic association and dissociation constants, respectively; Kd1 and Kd2 are equilibrium dissociation constants. The equilibrium and kinetic dissociation/association constants were evaluated for each analyte concentration using Bio-Rad ProteOn Manager™ v.3.1 software (Hercules, CA, USA), followed by averaging of the resulting values (n = 3–4; standard deviations are indicated).

[2] = parameters: method as in doi:10.3109/03639048309039887, PMID 10714613; details: pH values above 7; ref [22],[23]; cited from earlier work
[3] = tested on: AD; parameters: method as in 2 sources, one per row (each row's own in cited_ref): ref [36],[37],[38] = [36]; PMID 11794217; doi:10.1056/NEJMoa010178; 36. In’T Veld B.A. Ruitenberg A. Hofman A. Launer L.J. Van Duijn C.M. Stijnen T. Breteler M.M. Stricker B.H. Nonsteroidal antiinflammatory drugs and the risk of Alzheimer’s disease N. Engl. J. Med. 20 || [37]; PMID 18458226; doi:10.1212/01.wnl.0000311269.57716.63; 37. Vlad S.C. Miller D.R. Kowall N.W. Felson D.T. Protective effects of NSAIDs on the development of Alzheimer disease Neurology 2008 70 1672 1677 10.1212/01.wnl.0000311269.57716.63 18458226 PMC275824 || [38]; PMID 25227314; doi:10.3233/JAD-141506; 38. Wang J. Tan L. Wang H.F. Tan C.C. Meng X.F. Wang C. Tang S.W. Yu J.T. Anti-inflammatory drugs and risk of Alzheimer’s disease: An updated systematic review and meta-analysis J. Alzheimers Dis. 201 ||| ref [36],[37],[73] = [36]; PMID 11794217; doi:10.1056/NEJMoa010178; 36. In’T Veld B.A. Ruitenberg A. Hofman A. Launer L.J. Van Duijn C.M. Stijnen T. Breteler M.M. Stricker B.H. Nonsteroidal antiinflammatory drugs and the risk of Alzheimer’s disease N. Engl. J. Med. 20 || [37]; PMID 18458226; doi:10.1212/01.wnl.0000311269.57716.63; 37. Vlad S.C. Miller D.R. Kowall N.W. Felson D.T. Protective effects of NSAIDs on the development of Alzheimer disease Neurology 2008 70 1672 1677 10.1212/01.wnl.0000311269.57716.63 18458226 PMC275824 || [73]; PMID 33134914; doi:10.1093/braincomms/fcaa109; 73. Rivers-Auty J. Mather A.E. Peters R. Lawrence C.B. Brough D. Anti-inflammatories in Alzheimer’s disease—potential therapy or spurious correlate? Brain Commun. 2020 2 fcaa109 10.1093/braincomms/fca; details: cited from earlier work

Compound: CC(C)Cc1ccc(C(C)C(=O)O)cc1 (stereo not shown) [IBU, 2-[4-(2-methylpropyl)phenyl]propanoic acid]
- effect of IBU on HSA affinity to Aβ compared with serotonin [1]: lower than the effect for serotonin
- water solubility [2]: 100 to 1000 mM
- rates of AD among people taking IBU for chronic treatment of inflammatory conditions ([3]; ref [36],[37],[73]): lower rates of AD
- AD protection with long-term use of nonsteroidal anti-inflammatory drugs, including IBU ([3]; retrospective studies, ref [36],[37],[38]): protective against AD
